From US12138254B2, “Chronic nightly dosing of lasmiditan for migraine prevention” (Eli Lilly and Company, priority 2018, dated 2024)

System: dural plasma protein extravasation
Test: Trigeminal stimulation-induced dural plasma protein extravasation (PPE) in rats
Assay type: in vivo, Sprague-Dawley rats
Excerpt: Migraine is a painful condition thought to involve neurogenic inflammation of the dural membrane and activation of the trigeminal nervous system. The 5-HT1F receptor is widely expressed in the CNS and peripheral nerves, including the trigeminal ganglia, dorsal root ganglia and trigeminal nucleus caudalis. Plasma protein extravasation (PPE), one component of neurogenic inflammation, can be induced in the dura of rats by electrically stimulating the trigeminal ganglion. Considering the role of the trigeminal nerve in the physiology of migraine, this study is useful to characterize the ability of lasmiditan-hemisuccinate to block plasma protein extravasation in the dura of rats following electrical stimulation of the trigeminal ganglion.
To investigate the potential of lasmiditan to modify the dysfunction in the target tissue, the duration of effect following a single oral dose of lasmiditan-hemisuccinate was also determined. Electrical stimulation of the trigeminal ganglion of rats and guinea pigs can be used to induce neurogenic inflammation in the meninges (dura). Briefly, unilateral electrical stimulation of either the left or right trigeminal ganglion using electrodes implanted stereotaxically is used to induce ipsilateral neurogenic inflammation and the increased extravasation of plasma proteins.
Lasmiditan-hemisuccinate is dissolved in sterile water. All doses of lasmiditan are reported as free base equivalent doses, accounting for the weight of the salt. Envigo Sprague-Dawley, Sprague-Dawley male rats (250-350 grams, n=4/group) are fasted overnight prior to dosing. The animals are orally gavaged (2 mL/kg dose volume) with test compound or vehicle one hour prior to stimulation time and returned to their cages with only water available. Approximately 50 minutes post-dosing, the rats are anesthetized with Nembutal (65 mg/kg, ip.) and implanted with stainless steel stimulating electrodes (Rhodes Medical Systems, Inc.) to a depth of 9.2 mm. from the dura. The femoral vein is exposed and fluorescein isothiocyanate-labeled bovine serum albumin (FITC-BSA) (20 mg/kg, iv.), is injected into the femoral vein 2 minutes prior to stimulation. The FITC-BSA functions as a marker for protein extravasation. The left trigeminal ganglion is stimulated for 5 minutes at a current intensity of 1.0 mA (5 Hz, 5 msec pulse duration) with a Model S48 Grass Instrument Stimulator with PSIU6 photoelectric isolation unit (Grass-Telefactor). Five minutes following stimulation, a blood sample is collected by cardiac puncture and the rats are sacrificed by exsanguination with 40 ml of saline. One milliliter of blood is collected and placed in a 1.5 ml EDTA coated tube (Fisher Cat. #540734) on ice. Plasma is separated via centrifugation at 10,000 rpm (941 g) for thirty minutes at 4° C. The top of the skull is removed to collect the brain and dural membranes. The brain and plasma samples are frozen at −80° C. until thawed for compound quantification. The membrane samples are removed from both hemispheres, rinsed with water, and spread flat on microscope slides. The slides are dried for 15 minutes on a slide warmer, then the tissues are cover-slipped with a 70% glycerol/water solution. A fluorescence microscope (Zeiss) equipped with a grating monochromator and a spectrophotometer is used to quantify the amount of FITC-BSA dye in each dural sample. The extravasation induced by electrical stimulation of the trigeminal ganglion is an ipsilateral effect (i.e. occurs only on the side of the dura in which the trigeminal ganglion was stimulated). This allows the other (unstimulated) half of the dura to be used as the control. The ratio of extravasation in the dura from the stimulated side versus the unstimulated side is calculated and reported as the extravasation ratio for each animal. The mean extravasation ratio and standard error of the mean (SEM) are calculated for each treatment group. Controls yield a ratio of approximately 1.8. […]

## 2,4,6-trifluoro-N-[6-(1-methyl-piperidine-4-carbonyl)-pyridin-2-yl]-benzamide hemi-succinate salt [Lasmiditan-hemisuccinate]
1 mg/kg po, 1 hour post-dose
  inhibition of dural plasma protein extravasation vs vehicle: statistically different vs vehicle
10 mg/kg po, 1 hour post-dose
  inhibition of dural plasma protein extravasation vs vehicle: statistically different vs vehicle
One hour following oral administration to rats, 0.1-10 mg/kg
  inhibition of dural plasma protein extravasation: dose-dependently inhibits
Single 10 mg/kg po, 24 hours post-dose
  inhibition of dural plasma protein extravasation vs vehicle: significantly blocks
Single 10 mg/kg po, 48 hours post-dose
  inhibition of dural plasma protein extravasation vs vehicle: not effective
